Measurements: PubChem BioAssay AID2060500 (Molecular Pharmacology Branch, DTP, NCI, 2025)
pIC50: −log10 of the molar value. Blank lines part the entries; values can stand above or below the compound they belong to.

System: 596521-263-R-J1-PDC complex spheroids, viability % of control
Assay: Anticancer human tumor 596521-263-R-J1-PDC patient-derived soft tissue sarcoma cell line growth inhibition [GQUAD]
Details: for pIC50: curve of first compound; for viability, T/C: stronger effect = lower value
Procedure, shortened: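 Multi-cell-type spheroids of tumor cells with HUVEC and mesenchymal stem cells, treated with drug combinations. Concentrations descend in half-log steps from near clinical Cmax, or from 10 microM where Cmax is unknown; viability read-out.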

[1] = second compound 0.0316 µM, first compound 0.0316 µM
[2] = second compound 0.0316 µM, first compound 0.1 µM
[3] = second compound 0.0316 µM, first compound 0.316 µM
[4] = second compound 0.0316 µM, first compound 1 µM
[5] = second compound 0.0316 µM, first compound 3.16 µM
[6] = second compound 0.0316 µM, first compound 10 µM
[7] = second compound 0.1 µM, first compound 0.0316 µM
[8] = second compound 0.1 µM, first compound 0.1 µM
[9] = second compound 0.1 µM, first compound 0.316 µM
[10] = second compound 0.1 µM, first compound 1 µM
[11] = second compound 0.1 µM, first compound 3.16 µM
[12] = second compound 0.1 µM, first compound 10 µM
[13] = second compound 0.316 µM, first compound 0.0316 µM
[14] = second compound 0.316 µM, first compound 0.1 µM
[15] = second compound 0.316 µM, first compound 0.316 µM
[16] = second compound 0.316 µM, first compound 1 µM
[17] = second compound 0.316 µM, first compound 3.16 µM
[18] = second compound 0.316 µM, first compound 10 µM
[19] = second compound 1 µM, first compound 0.0316 µM
[20] = second compound 1 µM, first compound 0.1 µM
[21] = second compound 1 µM, first compound 0.316 µM
[22] = second compound 1 µM, first compound 1 µM
[23] = second compound 1 µM, first compound 3.16 µM
[24] = second compound 1 µM, first compound 10 µM
[25] = second compound 3.16 µM, first compound 0.0316 µM
[26] = second compound 3.16 µM, first compound 0.1 µM
[27] = second compound 3.16 µM, first compound 0.316 µM
[28] = second compound 3.16 µM, first compound 1 µM
[29] = second compound 3.16 µM, first compound 3.16 µM
[30] = second compound 3.16 µM, first compound 10 µM
[31] = second compound 10 µM, first compound 0.0316 µM
[32] = second compound 10 µM, first compound 0.1 µM
[33] = second compound 10 µM, first compound 0.316 µM
[34] = second compound 10 µM, first compound 1 µM
[35] = second compound 10 µM, first compound 3.16 µM
[36] = second compound 10 µM, first compound 10 µM
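Also: spheroids exposed to drugs for 7 days before viability reading.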
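For viability, T/C in this document: 100% = DMSO vehicle control viability.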

pIC50 (second compound 0.0316 µM): < 5.00
pIC50 (second compound 0.1 µM): < 5.00
pIC50 (second compound 0.316 µM): < 5.00
pIC50 (second compound 1 µM): < 5.00
pIC50 (second compound 3.16 µM): < 5.00
pIC50 (second compound 10 µM): 5.47
Compound: Cc1cccc(N(C)C(=O)C2C(O)CCN2c2nc(C)cc(C(F)(F)F)c2C#N)c1 (stereo unspecified) + Cc1cnc(CNC(=O)c2c(=O)c3ccc(N4CCCN(C)CC4)nc3n3c2sc2ccccc23)cn1
viability, T/C [1]: 123%
viability, T/C [2]: 98.5%
viability, T/C [3]: 106%
viability, T/C [4]: 98.5%
viability, T/C [5]: 104%
viability, T/C [6]: 99.3%
viability, T/C [7]: 87%
viability, T/C [8]: 87%
viability, T/C [9]: 93.8%
viability, T/C [10]: 92.4%
viability, T/C [11]: 86.3%
viability, T/C [12]: 90.9%
viability, T/C [13]: 74.5%
viability, T/C [14]: 77.9%
viability, T/C [15]: 81.7%
viability, T/C [16]: 80.6%
viability, T/C [17]: 85.4%
viability, T/C [18]: 80.6%
viability, T/C [19]: 63.1%
viability, T/C [20]: 70.7%
viability, T/C [21]: 60.7%
viability, T/C [22]: 64.7%
viability, T/C [23]: 68.5%
viability, T/C [24]: 66.3%
viability, T/C [25]: 64.6%
viability, T/C [26]: 57.9%
viability, T/C [27]: 62%
viability, T/C [28]: 52.1%
viability, T/C [29]: 59%
viability, T/C [30]: 54.4%
viability, T/C [31]: 50.7%
viability, T/C [32]: 49.8%
viability, T/C [33]: 49.3%
viability, T/C [34]: 51.8%
viability, T/C [35]: 51%
viability, T/C [36]: 41.8%

pIC50 (second compound 0.0316 µM): < 6.50
pIC50 (second compound 0.1 µM): < 6.50
pIC50 (second compound 0.316 µM): < 6.50
pIC50 (second compound 1 µM): < 6.50
pIC50 (second compound 3.16 µM): < 6.50
pIC50 (second compound 10 µM): 6.99
Compound: Cn1ncnc1[C@H]1c2n[nH]c(=O)c3cc(F)cc(c23)N[C@@H]1c1ccc(F)cc1 + Cc1cnc(CNC(=O)c2c(=O)c3ccc(N4CCCN(C)CC4)nc3n3c2sc2ccccc23)cn1
viability, T/C (second compound 0.0316 µM, first compound 0.000999 µM): 108%
viability, T/C (second compound 0.0316 µM, first compound 0.00316 µM): 83.4%
viability, T/C (second compound 0.0316 µM, first compound 0.00999 µM): 94.5%
viability, T/C [1]: 90.2%
viability, T/C (second compound 0.0316 µM, first compound 0.0999 µM): 90.2%
viability, T/C [3]: 71.2%
viability, T/C (second compound 0.1 µM, first compound 0.000999 µM): 88.5%
viability, T/C (second compound 0.1 µM, first compound 0.00316 µM): 84%
viability, T/C (second compound 0.1 µM, first compound 0.00999 µM): 72.3%
viability, T/C [7]: 81.2%
viability, T/C (second compound 0.1 µM, first compound 0.0999 µM): 74.6%
viability, T/C [9]: 64.7%
viability, T/C (second compound 0.316 µM, first compound 0.000999 µM): 81.3%
viability, T/C (second compound 0.316 µM, first compound 0.00316 µM): 71.1%
viability, T/C (second compound 0.316 µM, first compound 0.00999 µM): 86.4%
viability, T/C [13]: 68.5%
viability, T/C (second compound 0.316 µM, first compound 0.0999 µM): 76%
viability, T/C [15]: 65.9%
viability, T/C (second compound 1 µM, first compound 0.000999 µM): 74.1%
viability, T/C (second compound 1 µM, first compound 0.00316 µM): 66.2%
viability, T/C (second compound 1 µM, first compound 0.00999 µM): 60.5%
viability, T/C [19]: 53.7%
viability, T/C (second compound 1 µM, first compound 0.0999 µM): 60%
viability, T/C [21]: 59.7%
viability, T/C (second compound 3.16 µM, first compound 0.000999 µM): 55.9%
viability, T/C (second compound 3.16 µM, first compound 0.00316 µM): 56.4%
viability, T/C (second compound 3.16 µM, first compound 0.00999 µM): 54%
viability, T/C [25]: 55.7%
viability, T/C (second compound 3.16 µM, first compound 0.0999 µM): 56.5%
viability, T/C [27]: 53%
viability, T/C (second compound 10 µM, first compound 0.000999 µM): 52.9%
viability, T/C (second compound 10 µM, first compound 0.00316 µM): 40.3%
viability, T/C (second compound 10 µM, first compound 0.00999 µM): 56.2%
viability, T/C [31]: 50.1%
viability, T/C (second compound 10 µM, first compound 0.0999 µM): 52.8%
viability, T/C [33]: 32.2%

pIC50 (second compound 0.0316 µM): < 5.00
pIC50 (second compound 0.1 µM): < 5.00
pIC50 (second compound 0.316 µM): < 5.00
pIC50 (second compound 1 µM): < 5.00
pIC50 (second compound 3.16 µM): > 7.50
pIC50 (second compound 10 µM): > 7.50
Compound: O=C(c1cc(Cc2n[nH]c(=O)c3ccccc23)ccc1F)N1CCN(C(=O)C2CC2)CC1 + Cc1cnc(CNC(=O)c2c(=O)c3ccc(N4CCCN(C)CC4)nc3n3c2sc2ccccc23)cn1
viability, T/C [1]: 92%
viability, T/C [2]: 91%
viability, T/C [3]: 96%
viability, T/C [4]: 80.2%
viability, T/C [5]: 81.4%
viability, T/C [6]: 68.9%
viability, T/C [7]: 86.3%
viability, T/C [8]: 80.6%
viability, T/C [9]: 82.8%
viability, T/C [10]: 70.3%
viability, T/C [11]: 71.4%
viability, T/C [12]: 56.4%
viability, T/C [13]: 71.8%
viability, T/C [14]: 77.9%
viability, T/C [15]: 73.4%
viability, T/C [16]: 78.1%
viability, T/C [17]: 73.3%
viability, T/C [18]: 58.1%
viability, T/C [19]: 68.2%
viability, T/C [20]: 64.2%
viability, T/C [21]: 59.4%
viability, T/C [22]: 64.3%
viability, T/C [23]: 60.9%
viability, T/C [24]: 54.1%
viability, T/C [25]: 47.9%
viability, T/C [26]: 50.1%
viability, T/C [27]: 52.2%
viability, T/C [28]: 56.8%
viability, T/C [29]: 52.3%
viability, T/C [30]: 48.8%
viability, T/C [31]: 46.1%
viability, T/C [32]: 48.4%
viability, T/C [33]: 47.4%
viability, T/C [34]: 46.6%
viability, T/C [35]: 50.9%
viability, T/C [36]: 41.8%
